What was measured:
Format in all cases: cell-based
BT-549 = assay: NCI 60-cell line protocol, BT-549 (breast); settings: Homo sapiens, 48 h, two days drug exposure, SRB endpoint, read-out: GI-50 value
Experimental: (§1) Samples containing exemplary compounds of formulas (Ia)-(Ig) were tested in the standard National Cancer Institute 60-cell line protocol. First, they were tested against all 60 cell lines in a single final concentration of 10 micromolar. Then, they were separately tested in five 10-fold dilutions. The drug exposure was two days, with an SRB endpoint.

SN12C = assay: NCI 60-cell line protocol, SN12C (renal); settings: Homo sapiens, 48 h, two days drug exposure, SRB endpoint, read-out: GI-50 value
Experimental: as §1

OVCAR-8 = assay: NCI 60-cell line protocol, OVCAR-8 (ovarian); settings: Homo sapiens, 48 h, two days drug exposure, SRB endpoint, read-out: GI-50 value
Experimental: as §1

HS 578T = assay: NCI 60-cell line protocol, HS 578T (breast); settings: Homo sapiens, 48 h, two days drug exposure, SRB endpoint, read-out: GI-50 value
Experimental: as §1

RXF 393 = assay: NCI 60-cell line protocol, RXF 393 (renal); settings: Homo sapiens, 48 h, two days drug exposure, SRB endpoint, read-out: GI-50 value
Experimental: as §1

ACHN = assay: NCI 60-cell line protocol, ACHN (renal); settings: Homo sapiens, 48 h, two days drug exposure, SRB endpoint, read-out: GI-50 value
Experimental: as §1

UO-31 = assay: NCI 60-cell line protocol, UO-31 (renal); settings: Homo sapiens, 48 h, two days drug exposure, SRB endpoint, read-out: GI-50 value
Experimental: as §1

786-0 = assay: NCI 60-cell line protocol, 786-0 (renal); settings: Homo sapiens, 48 h, two days drug exposure, SRB endpoint, read-out: GI-50 value
Experimental: as §1

[1] = system: cancer cell lines within the NCI 60 cell assay; assay: NCI 60 cell assay, cancer cell line panel; settings: Homo sapiens, average over the nine cell lines of Table 1, read-out: Average GI-50
Experimental: as §1

A498 = assay: NCI 60-cell line protocol, A498 (renal); settings: Homo sapiens, 48 h, two days drug exposure, SRB endpoint, read-out: GI-50 value
Experimental: as §1

Row | SMILES | GI50 (BT-549) | GI50 (SN12C) | GI50 (OVCAR-8) | GI50 (HS 578T) | GI50 (RXF 393) | GI50 (ACHN) | GI50 (UO-31) | GI50 (786-0) | GI50 [1] | GI50 (A498)
1 | C[C@@H]1CC[C@@H]2C1[C@H](OC(=O)/C=C/c1ccccc1)C1(C3CCCCC3)C[C@@H](NC(=O)CO)C2(C)O1 (stereo partly shown) [(Ia)] | 13200 nM | 11500 nM | 16200 nM | 2820 nM | 3310 nM | 3470 nM | 4790 nM | 14800 nM | 8030 nM | 2190 nM
2 | C[C@@H]1CC[C@@H]2C1[C@H](OC(=O)/C=C/c1ccccc1)[C@]1(C3CCCCC3)C[C@@H](OC(=O)CO)[C@@]2(C)O1 (stereo partly shown) [(Ib)] | 34 nM | 85 nM | 513 nM | 24 nM | 78 nM | 10 nM | 15 nM | 1180 nM | 217 nM | 19 nM
3 | C[C@@H]1CC[C@@H]2C1[C@H](OC(=O)/C=C/c1ccccc1)[C@]1(c3ccccc3)C[C@@H](OC(=O)CO)[C@@]2(C)O1 (stereo partly shown) [(Ic)] | 407 nM | 537 nM | 6760 nM | 112 nM | 251 nM | 178 nM | 155 nM | 11700 nM | 2260 nM | 191 nM
4 | CC1CC[C@@H]2C1[C@H](OC(=O)/C=C/C1CCCCC1)[C@]1(C3CCCCC3)C[C@@H](OC(=O)CO)[C@@]2(C)O1 (stereo partly shown) [(Id)] | 55 nM | 32 nM | 10700 nM | 16 nM | 34 nM | 22 nM | 29 nM | 12000 nM | 2550 nM | 21 nM
5 | C/C(=C\C(=O)O[C@H]1C2C(C)CC[C@H]2[C@]2(C)O[C@@]1(C1CCCCC1)C[C@H]2OC(=O)CO)c1ccccc1 (stereo partly shown) [(Ie)] | 120 nM | 23 nM | 4270 nM | 10 nM | 79 nM | 15 nM | 62 nM | 5130 nM | 1080 nM | 16 nM
6 | CC1CC[C@@H]2C1[C@H](OC(=O)c1ccc3ccccc3c1)[C@]1(C3CCCCC3)C[C@@H](OC(=O)CO)[C@@]2(C)O1 (stereo partly shown) [(If)] | 71 nM | 52 nM | 5620 nM | 23 nM | 71 nM | 19 nM | 40 nM | 5370 nM | 1250 nM | 19 nM
7 | Cc1c(C(=O)O[C@H]2C3C(C)CC[C@H]3[C@]3(C)O[C@@]2(C2CCCCC2)C[C@H]3OC(=O)CO)ccc2ccccc12 (stereo partly shown) [(Ig)] | 5250 nM | 158 nM | 6610 nM | 17 nM | 166 nM | 59 nM | 407 nM | 6460 nM | 2130 nM | 17 nM

Reference: patent US11098054B2, “Englerin derivatives for treatment of cancer” (The United States of America,as represented by the …, priority 2017, dated 2021)
